pIC50: −log10 of the molar value.

A word on the pIC50: it is the IC50 on a negative log10 scale, so that one unit is a factor of ten. Low values mean a large IC50, high ones a small IC50.

Test system in the first assay: not listed separately
The assay can be described thus: Antitumor activity against humanized mouse LLC-hPD-L1 cells implanted in hPD-1 knockin C57BL/6 mouse assessed as tumor growth inhibition at 10 mg/kg, ip administered for 12 days starting from day 7 post tumor implantation and measured every 2 days relative to control. The class given is functional. Particulars: LLC-hPD-L1, 288 h, time 12 day, read-out: TGI.
Turning to `COc1nc(OCc2cccc(-c3ccccc3)c2C)ccc1CNCCNC(C)=O`, the inhibition in vivo at 10 mg/kg amounted to 39.8%.

In another assay the target is Programmed cell death protein 1/Programmed cell death 1 ligand 1 (Homo sapiens, UniProt Q9NZQ7). The assay can be described thus: Inhibition of europium-labeled PD-1/biotinylated PD-L1 interaction (unknown origin) preincubated for 15 mins with PD-L1 followed by PD-1 addition and measured after 90 mins by TR-FRET assay.
Programmed cell death protein 1/Programmed cell death 1 ligand 1, sequence (Q15116 whole entry): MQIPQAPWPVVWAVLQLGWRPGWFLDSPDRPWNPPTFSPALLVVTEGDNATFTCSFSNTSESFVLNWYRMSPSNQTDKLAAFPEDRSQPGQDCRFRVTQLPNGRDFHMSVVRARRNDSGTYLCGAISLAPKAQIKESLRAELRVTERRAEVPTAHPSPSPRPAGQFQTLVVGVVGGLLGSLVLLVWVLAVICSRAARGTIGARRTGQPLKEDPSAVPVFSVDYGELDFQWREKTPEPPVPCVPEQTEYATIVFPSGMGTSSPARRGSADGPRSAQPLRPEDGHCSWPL
Programmed cell death protein 1/Programmed cell death 1 ligand 1, sequence (Q9NZQ7 whole entry): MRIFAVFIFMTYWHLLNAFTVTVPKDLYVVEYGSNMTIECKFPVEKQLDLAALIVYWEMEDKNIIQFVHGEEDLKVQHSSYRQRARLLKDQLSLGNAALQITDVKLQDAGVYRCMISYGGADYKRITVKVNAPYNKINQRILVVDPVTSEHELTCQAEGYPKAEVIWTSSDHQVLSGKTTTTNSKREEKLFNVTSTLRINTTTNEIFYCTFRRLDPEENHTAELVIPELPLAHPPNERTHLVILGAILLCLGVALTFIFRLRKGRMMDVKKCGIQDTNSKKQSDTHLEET
Details: not given
The class given is protein-complex assay. In general terms: In TR-FRET formats the signal depends on donor and acceptor labels being close together.
On to `Cc1c(-c2ccccc2)cccc1N1C(=O)c2ccc(OCc3ccccc3)cc2C1=O`, for which the pIC50 is less than 5.00. The same measure, in the same setting: the figure for `Cc1c(-c2ccccc2)cccc1N1C(=O)c2cc(Br)c(CN3CCOCC3)cc2C1=O` is less than 5.00; for `Cc1c(-c2ccc3c(c2)OCCO3)cccc1N1C(=O)c2ccc(C(=O)NCCO)cc2C1=O` it is 6.13. Still for that read-out and setting: the figure for `Cc1c(-c2ccccc2)cccc1N1C(=O)c2ccc(CN3CCC[C@H]3C(=O)O)cc2C1=O` is 5.85; for `N#Cc1c(-c2ccc3c(c2)OCCO3)cccc1N1C(=O)c2ccc(C(=O)NCCO)cc2C1=O` it is 5.93; for `Cc1c(-c2ccccc2)cccc1N1C(=O)c2ccc(CNCCO)cc2C1=O` it is 6.47. `Cc1c(-c2ccccc2)cccc1N1C(=O)c2cc(Br)c(CN3CCCC[C@H]3C(=O)O)cc2C1=O` had a pIC50 of less than 5.00. With `Cc1c(-c2ccccc2)cccc1N1C(=O)c2ccc(CNCCNS(C)(=O)=O)cc2C1=O`, the pIC50 was 6.01. `N#Cc1ccc(COc2ccc3c(c2)C(=O)N(c2cccc(-c4ccccc4)c2C#N)C3=O)cc1` had a pIC50 of less than 5.00.

In turn, `Cc1c(-c2ccccc2)cccc1N1C(=O)c2ccc(CNCCN)cc2C1=O` gave a pIC50 of 6.04. On the same count and under the same terms, the figure for `CC(=O)COc1ccc2c(c1)C(=O)N(c1cccc(-c3ccccc3)c1C#N)C2=O` is 6.60; for `Cc1c(-c2ccccc2)cccc1N1C(=O)c2ccc(CN3CCOCC3)cc2C1=O` it is 5.60; for `CC(=O)COc1ccc2c(c1)C(=O)N(c1cccc(-c3ccccc3)c1C)C2=O` it is 5.98. Regarding `Cc1c(-c2ccccc2)cccc1N1C(=O)c2ccc(C(=O)NCCO)cc2C1=O`, the pIC50 is 5.72. Still for that read-out and setting: the figure for `CC(=O)NCCNCc1ccc2c(c1)C(=O)N(c1cccc(-c3ccccc3)c1C)C2=O` is 6.23; for `CC(=O)NCCNCc1ccc2c(c1)C(=O)N(Cc1cccc(-c3ccccc3)c1C)C2=O` it is 5.27.

`Cc1c(-c2ccccc2)cccc1N1C(=O)c2ccc(OCc3cccc(C#N)c3)cc2C1=O` gave a pIC50 of less than 5.00. Still for that read-out and setting: with `Cc1c(-c2ccccc2)cccc1N1C(=O)c2ccc(C(=O)N3CCOCC3)cc2C1=O` the figure was 5.71; with `Cc1c(-c2ccccc2)cccc1N1C(=O)c2ccc(CNC3CCOCC3)cc2C1=O`, 6.17; with `Cc1c(CN2C(=O)c3ccc(CNCCO)cc3C2=O)cccc1-c1ccccc1`, 5.42. Compound `N#Cc1c(-c2ccccc2)cccc1N1C(=O)c2ccc(C(=O)N3CCOCC3)cc2C1=O` had a negative logarithm of the IC50 (pIC50) of 5.17. Still for that read-out and setting: with `Cc1c(-c2ccccc2)cccc1N1C(=O)c2ccc(CN3CCC[C@H]3CO)cc2C1=O` the figure was 5.66; with `Cc1c(-c2ccccc2)cccc1N1C(=O)c2ccc(CN(C)CCO)cc2C1=O`, 6.04; with `Cc1c(-c2ccccc2)cccc1N1C(=O)c2ccc(OCc3ccc(C(C)C)cc3)cc2C1=O`, less than 5.00. Same read-out and setting: the figure for `COc1cc2c(cc1CNCC(=O)O)C(=O)N(c1cccc(-c3ccccc3)c1C)C2=O` is 7.44; for `Cc1c(CN2C(=O)c3ccc(CN4CCCC[C@H]4C(=O)O)cc3C2=O)cccc1-c1ccccc1` it is 5.33. Same read-out and setting: the figure for `COc1cc2c(cc1CN1CCC[C@H]1C(=O)O)C(=O)N(c1cccc(-c3ccccc3)c1C)C2=O` is 6.86. For the compound `COc1cc2c(cc1CN[C@@H](C)C(=O)O)C(=O)N(c1cccc(-c3ccccc3)c1C)C2=O`, the pIC50 was 7.77. Same read-out and setting: the figure for `Cc1c(-c2ccccc2)cccc1N1C(=O)c2ccc(CNCCNC(=O)OC(C)(C)C)cc2C1=O` is 5.62; for `N#Cc1cccc(COc2ccc3c(c2)C(=O)N(c2cccc(-c4ccccc4)c2C#N)C3=O)c1` it is 6.40.

As to `Cc1c(-c2ccccc2)cccc1N1C(=O)c2ccc(CN3CCCC[C@H]3C(=O)O)cc2C1=O`, the pIC50 was 5.68. In the case of `N#Cc1c(-c2ccccc2)cccc1N1C(=O)c2ccc(C(=O)NCCO)cc2C1=O`, the pIC50 was 5.44. Still for that read-out and setting: the figure for `COc1cc2c(cc1CN[C@@H](CO)C(=O)OC(C)(C)C)C(=O)N(c1cccc(-c3ccccc3)c1C)C2=O` is 6.53.

Turning to `Cc1c(-c2ccccc2)cccc1N1C(=O)c2ccc(CN3CCC[C@H]3C(N)=O)cc2C1=O`, the pIC50 is 5.56.

As to `Cc1c(-c2ccccc2)cccc1N1C(=O)c2ccc(CN[C@@H](CO)C(=O)O)cc2C1=O`, the pIC50 is 6.81.

With `CCOC(=O)[C@H](CO)NCc1ccc2c(c1)C(=O)N(c1cccc(-c3ccccc3)c1C)C2=O`, the pIC50 was 5.62. The same measure, in the same setting: with `COc1cc2c(cc1CNCCO)C(=O)N(c1cccc(-c3ccccc3)c1C)C2=O` the figure was 7.81.

As to `COc1cc2c(cc1CNCCNC(C)=O)C(=O)N(c1cccc(-c3ccccc3)c1C)C2=O`, the pIC50 is 7.34. On the same count and under the same terms, the figure for `Cc1c(-c2ccccc2)cccc1N1C(=O)c2ccc(C(=O)N3CCN(C(C)C)CC3)cc2C1=O` is 5.29.

These data come from ChEMBL document CHEMBL5316293, “Novel Small-Molecule PD-L1 Inhibitor Induces PD-L1 Internalization and Optimizes the Immune Microenvironment” (J Med Chem, 2023).
